According to ChEMBL document CHEMBL1130596, “A high affinity, mu-opioid receptor-selective enkephalin analogue lacking an N-terminal tyrosine” (Bioorg Med Chem Lett, 1998):
Starred links: 1 amine or outer side, 2 acyl side, 3 side chain; linkers in the order of their positions; H or OH if unused. Positions of bridges follow the written chain, without caps; N, C: chain ends. Non-standard residues stand in square brackets, D forms with d. Residues, ends and D or L forms follow the SMILES beside them. dPen = CC(C)(S)[C@@H](N)C(=O)O; Pen = CC(C)(S)[C@H](N)C(=O)O; CH2CH2 = C(C[*:2])[*:1]

Key:
Mu-type opioid receptor = Mu-type opioid receptor (Cavia porcellus, UniProt P97266); experiment: Binding affinity against mu opioid receptor
[1] = target: Opioid receptors; mu/kappa/delta (Homo sapiens, UniProt P41145+P41143+P35372); experiment: Agonistic activity tested in vitro in guinea pig ileum opioid; assay type: functional, tissue-based, Cavia porcellus; conditions: target entry is the homologue from another species
[2] = Binding affinity against Opioid receptor delta 1

Mu-type opioid receptor, sequence (P97266 whole entry): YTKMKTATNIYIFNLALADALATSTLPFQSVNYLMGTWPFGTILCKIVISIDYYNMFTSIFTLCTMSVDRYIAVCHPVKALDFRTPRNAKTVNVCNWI

Row | Compound | Ki (Mu-type opioid receptor) [nM] | IC50 [1] [nM] | Ki [2] [nM]
1 | CC1(C)SCCSC[C@@H](NC(=O)[C@@H](N)Cc2ccccc2)C(=O)N[C@@H](Cc2ccccc2)C(=O)N[C@H]1C(N)=O | 1.36 | 9.1 | 
2 | CC1(C)SSC[C@@H](NC(=O)[C@@H](N)Cc2ccccc2)C(=O)N[C@@H](Cc2ccccc2)C(=O)N[C@H]1C(=O)O | 610 |  | 
3 | CC1(C)SSC[C@H](NC(=O)[C@@H](N)Cc2ccc(O)cc2)C(=O)N[C@@H](Cc2ccccc2)C(=O)N[C@@H]1C(=O)O (H-YCF[Pen]-OH; disulfide 2-4) |  |  | 0.74
4 | CC1(C)SCCSC[C@@H](NC(=O)[C@@H](N)Cc2ccc(O)cc2)C(=O)N[C@@H](Cc2ccccc2)C(=O)N[C@H]1C(N)=O (H-Y[dC]F[dPen]-NH2; linker 2-4 via CH2CH2) | 0.29 |  | 
5 | C[C@@H](NC(=O)[C@@H](N)Cc1ccc(O)cc1)C(=O)NCC(=O)N(C)[C@@H](Cc1ccccc1)C(=O)NCCO [DAMGO] | 0.99 |  | 
